Measured values published in article PMC6362038, “Secondary structures and cell-penetrating abilities of arginine-rich peptide foldamers” (Scientific Reports, 2019).
Peptide text beside a SMILES is read from it. * marks the point of attachment. 5FAM = O=C1OC2(c3ccc(O)cc3Oc3cc(O)ccc32)c2ccc(C(=O)*)cc21

How the values were obtained:
HeLa cells [1] = conditions: 24 h incubation; cited from earlier work
Protocol: Cellular uptake of peptides was assessed against HeLa (Fig. 5a) and CHO-K1 cells (Fig. 5b) at a concentration of 1 µM and various incubation times (2, 6, and 24 h). […] Furthermore, the cellular uptake of Ac5c^dOM peptide increased up t ...

[2] = Resistance to protease digestion with trypsin; assay type: in vitro ADME; conditions: 10 µM peptide in 2.5 × 10^−6 w/v% trypsin/PBS, 37 °C, RP-HPLC, α-CHCA internal standard, read-out: intact peptide after incubation with trypsin
Excerpt: (§1) Next, we examined the stability of peptides against protease digestion using trypsin (Fig. 4a) and pronase (Fig. 4b). One of the advantages of peptide foldamers containing dAAs is their high resistance to degradation by proteases[38]–[40]. Trypsin is a serine protease that cleaves amide bonds at the C terminus of cationic amino acids such as Arg and lysine. Pronase is a non-specific protease mixture produced in the culture supernatant of Streptomyces griseus. Ac5c, Ac5c^dOM, (αMe)Leu, and Leu peptides were incubated with trypsin or pronase for 1, 2, and 4 h, and then rate of intact peptide was evaluated by RP-HPLC using α-cyano-4-hydroxycinnamic acid (α-CHCA) as an internal standard. Leu peptide was promptly degraded by both trypsin and pronase, and reached 0% intact peptide after 4 h incubation in a similar manner to Arg peptide reported previously[24],[25]. On the other hand, approximately 80% of Ac5c, Ac5c^dOM, and (αMe)Leu peptides remained intact even after 4 h incubation. Introduction of dAAs into peptides markedly elevated resistance to protease digestion, whether or not peptides formed stable helical structures. In other words, peptides composed of only natural α-amino acids were easily degraded by proteases independently of their peptide secondary structures.
(§2) One-hundred microliters of peptide solution (10 µM) in 2.5 × 10^−6 w/v% trypsin or pronase/phosphate buffer saline (PBS) was incubated at 37 °C for 0, 1, 2, and 4 h. After each incubation time, 250 µL of 1% TFA/PBS solution was added to inactivate the proteases, and 50 µL of 1/2 diluted saturated α-CHCA solution was added as an internal standard, followed by HPLC analysis, which was performed using the above-mentioned conditions.

[3] = Resistance to protease digestion with pronase; assay type: in vitro ADME, Streptomyces griseus; conditions: 10 µM peptide in 2.5 × 10^−6 w/v% pronase/PBS, 37 °C, RP-HPLC, α-CHCA internal standard, read-out: intact peptide after incubation with pronase
Excerpt: as §1, §2

HeLa cells [4] = experiment: Cellular uptake of CF-labeled peptides into HeLa cells (flow cytometry); assay type: cell-based; conditions: 1 µM peptide, 2, 6 and 24 h, DMEM 10% FBS, heparin wash, trypsinized, flow cytometry fluorescence, mean of n = 3
Protocol: Cellular uptake of peptides was assessed against HeLa (Fig. 5a) and CHO-K1 cells (Fig. 5b) at a concentration of 1 µM and various incubation times (2, 6, and 24 h). […] Not only stabilities against protease digestion but also other factors might contribute to prolongation of the cell-penetrating ability of peptides. […] The number of Arg residues in Arg-rich peptides is very important for their cell-penetrating ability, and six Arg are not enough. […] Substitution of Arg in Arg peptide with Ac5c, Ac5c^dOM, or (αMe)Leu positively affected its cell-penetrating ability compared with Aib. In comparison, among the peptides containing dAAs, (αMe)Leu peptide was the best for HeLa cell, Ac5c peptide was the best for CHO-K1 cell, and Ac5c^dOM peptide was the worst for both cell types (Fig. 5). Although the best peptides were different depending on cell type, the worst peptide was same for both cell types. […] Taken together, a stable helical structure by introducing dAAs into Arg-rich peptide enhanced their cell-penetrating abilities.
HeLa or CHO-K1 cells were seeded on 24-well culture plates (100,000 cells/well) and incubated in 400 µL of DMEM containing 10% FBS. The medium was then replaced with fresh medium, and a peptide solution was added to each well at a concentration of 1 µM. After each incubation time, the medium was removed and cells were washed with ice-cold PBS with heparin (20 units/mL) and trypsinized. After the addition of medium containing 10% FBS, fluorescence intensity was detected and acquired using an On-chip Flow (On-chip Biotechnologies Co., Ltd, Tokyo, Japan). The results are presented as a mean and standard deviation obtained from 3 samples.

[5] = Circular dichroism, R value of secondary structure; assay type: physicochemical; conditions: CD, peptide 24 µM
Protocol: The conformations of peptides were analyzed by circular dichroism (CD) in pH 7.3 4-(2-hydroxyethyl)-1-piperazineethanesulfonic acid (HEPES) buffer (Fig. 3a), 40% 2,2,2-trifluoroethanol (TFE)/pH 7.3 HEPES buffer (Fig. 3b), and 75% TFE/pH 7.3 HEPES buffer (Fig. 3c). Negative maxima at 205–209 nm (π → π*) and 222–225 nm (n → π*) were diagnostic of a right-handed (P) helical structure[31]–[33]. The ratio of R (θπ → π*/θn → π*) has been used as a parameter to distinguish an α-helical structure from a 3_10-helical structure (i.e., R ≈ 1: α-helix; R < 0.4: 3_10-helix) (Table S1)[34],[35]. Helical content (helicity) of peptides was estimated from the intensity of θn → π* values. A negative maximum at 195–200 nm (π → π*) and a weak positive maximum at 217 nm (n → π*) were diagnostic of a random coil structure. […] By adding TFE to HEPES buffer, (αMe)Leu peptide formed a complete right-handed (P) helical structure in a mixture of α- and 3_10-helices (R = 0.57 and 0.56 in Figs 3b and […], respectively). The dominant structures of Ac5c and Leu peptides changed by increased the rate of TFE to eventually be α-/3_10-helices (R = 0.52) and 3_10-helix (R = 0.30), respectively (Fig. 3c). […] Cbz-[L-Leu-L-Leu-(S,S)-Ac5c^dOM]3-OMe was reported to form a right-handed (P) helical structure in 50% TFE/H2O[37]. L-Leu might contribute to stabilization of the peptide helical secondary structure as well as (S,S)-Ac5c^dOM. Destabilization of the peptide helical secondary structure by L-Arg might be stronger than stabilization of it by (S,S)-Ac5c^dOM. Taken together with the results of CD spectra (Fig. 3), in which helicity of peptides was estimated from the intensity of θn → π* values, stability in the helicity of the peptides in the current study was as follows: (αMe)Leupeptide>Ac5cpeptide≈Leupeptide>Ac5c^dOMpeptide≈Argpeptide.
Figure 3 CD spectra of peptides in (a) HEPES buffer, (b) 40% TFE/HEPES buffer, and (c) 75% TFE/HEPES buffer. Peptide concentration: 24 µM.
Optical rotation [α]^rtD was measured using a Jasco DIP-370 polarimeter (JASCO, Tokyo, Japan) using a 0.5 dm cell. Infrared (IR) spectra were recorded using a Shimadzu IR Affinity-1 spectrometer (Shimadzu Corporation, Kyoto, Japan) for conventional measurement (KBr). CD spectra were recorded using a Jasco J-720W spectropolarimeter (JASCO) with a 1.0 mm path length cell. ^1H NMR (400 MHz) and ^13C NMR (100 MHz) spectra were determined using a JEOL AL 400 spectrometer (JEOL Ltd, Tokyo, Japan). Fast atom bombardment (FAB)-MS was measured using a JEOL JMS-700N (JEOL). MALDI-TOF-MS spectra were recorded using a Bruker Ultrax spectrometer (Bruker Daltonics, Fermont, CA). Piperidine was purchased from Tokyo Chemical Industry Co., Ltd. (Tokyo, Japan). Fmoc-L-Arg(Pbf)-OH, Fmoc-Gly-OH, Fmoc-L-Leu-OH, and CLEAR-Amide resin were purchased from the Peptide Institute., Inc. (Osaka, Japan). Fmoc-(S)-(αMe)Leu-OH was obtained from Nagase & Co., Ltd. (Kyoto, Japan). Fmoc-Ac5c-OH was purchased from Watanabe Chemical Industries, Ltd. (Hiroshima, Japan). HATU, HBTU, HOAt, and HOBt were from AAPPTec (Louisville, KY). COMU was from Novabiochem (Tokyo, Japan). CF and Dulbecco’s modified Eagle’s medium (DMEM) were obtained from Sigma-Aldrich Co. (St. Louis, MO). diisopropylethylamine (DIPEA) and heparin were purchased from Wako Pure Chemicals Co., Inc. (Osaka, Japan). Diethyl ether was from Kanto Chemical Co., Inc. (Tokyo, Japan). Trifluoroacetic acid (TFA) was obtained from Nacalai Tesque, Co., Inc. (Kyoto, Japan). Hoechst 33342 and a Cell counting kit-8 were purchased from Dojindo Laboratories (Kumamoto, Japan). LysoTracker Red was from Molecular Probes (Eugene, OR).
Table S1. R values (qπ → π*/qn → π*) of synthetic peptides.
R value (qπ → π*/qn → π* )
HEPES 40% TFE/HEPES 75% TFE/HEPES

Row | Compound | cell-penetrating ability compared with Arg nonapeptide (HeLa cells [1]) | remaining at 4 h, 10 µM [2] [%] | remaining at 4 h, 10 µM [3] [%] | cellular uptake, course over incubation time (HeLa cells [4]) | R value (θπ → π*/θn → π*) ([5]; 40% TFE/pH 7.3 HEPES buffer) | R value (θπ → π*/θn → π*) ([5]; 75% TFE/pH 7.3 HEPES buffer) | R value (θπ → π*/θn → π*) ([5]; pH 7.3 HEPES buffer, R ≈ 1 α-helix, R < 0.4 3_10-helix)
1 | (L-Arg-L-Arg-Aib)3 [(L-Arg-L-Arg-Aib)3 nonapeptide] | much lower cell-penetrating ability than Arg nonapeptide | – | – | – | – | – | –
2 | CC(C)C[C@H](NC(=O)[C@H](CCCNC(=N)N)NC(=O)[C@H](CCCNC(=N)N)NC(=O)[C@H](CC(C)C)NC(=O)[C@H](CCCNC(=N)N)NC(=O)[C@H](CCCNC(=N)N)NC(=O)[C@H](CC(C)C)NC(=O)[C@H](CCCNC(=N)N)NC(=O)[C@H](CCCNC(=N)N)NC(=O)CNC(=O)c1ccc2c(c1)C(=O)OC21c2ccc(O)cc2Oc2cc(O)ccc21)C(N)=O [Leu peptide] (5FAM-GRRLRRLRRL-NH2) | – | 0 | 0 | small decrease | 0.26 | 0.30 | No significant maxima
